# From ChEMBL document CHEMBL1201862, “PubChem BioAssay data set” (2004)
# Several values for one entry are separate records, joined by “and”; a condition that tells them apart may be missing. Equal entries are not always repeated.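 Each compound was tested at five concentrations against cells in 96-well plates for 48 hours. GI50 is the concentration that inhibits growth by half.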 Activity calls are given as the source filed them. Rule as the data show it: active = GI50 up to about 1.1 µM and inactive = higher.
# Legend:
# Test in all cases: DTP human tumour cell line panel, 48 h
# U-251 = system: U-251
# 786-0 = system: 786-0
# SW-620 = system: SW-620
# A549 = system: A549
# M14 = system: M14
# COLO 205 = system: COLO 205
# MDA-MB-435 = system: MDA-MB-435
# NCI-H23 = system: NCI-H23
# SK-MEL-2 = system: SK-MEL-2
# HL-60 = system: HL-60
# HOP-62 = system: HOP-62
# NCI-H226 = system: NCI-H226
# BT-549 = system: BT-549
# IGROV-1 = system: IGROV-1
# EKVX = system: EKVX
# MDA-N = system: MDA-N
# SR = system: SR
# NCI/ADR-RES = system: NCI/ADR-RES
# UO-31 = system: UO-31
# SNB-19 = system: SNB-19
Compound,GI50 (U-251),GI50 (786-0),GI50 (SW-620),GI50 (A549),GI50 (M14),GI50 (COLO 205),GI50 (MDA-MB-435),GI50 (NCI-H23),GI50 (SK-MEL-2),GI50 (HL-60),GI50 (HOP-62),GI50 (NCI-H226),GI50 (BT-549),GI50 (IGROV-1),GI50 (EKVX),GI50 (MDA-N),GI50 (SR),GI50 (NCI/ADR-RES),GI50 (UO-31),GI50 (SNB-19)
O=C(C[C@@H]1NCCC[C@H]1O)Cn1cnc2cc(Br)c(Cl)cc2c1=O,0.0252 µM (active),0.0182 µM (active),0.0259 µM (active),0.0128 µM (active),0.0178 µM (active),0.0165 µM (active),0.012 µM (active),0.0195 µM (active),0.0148 µM (active),0.033 µM (active),0.0279 µM (active),< 0.0115 µM (active),0.0347 µM (active),0.0296 µM (active),0.0244 µM (active),0.0138 µM (active),0.0146 µM (active),0.0416 µM (active),0.0376 µM (active),0.0204 µM (active)
COc1ccc(C2=NN(C(=N)S)C(c3ccccc3)C2)cc1 (stereo not given),38.7 µM (inactive),38.3 µM (inactive),52.2 µM (inactive),34.8 µM (inactive),41 µM (inactive),25.8 µM (inactive),31 µM (inactive),34 µM (inactive),29.4 µM (inactive),18.2 µM (inactive),38.2 µM (inactive),34.6 µM (inactive),38.2 µM (inactive),48.4 µM (inactive),35.9 µM (inactive),27.9 µM (inactive),23.2 µM (inactive),34.5 µM (inactive),43.4 µM (inactive),51.8 µM (inactive)
COC(=O)c1cc(-c2ccc3ccccc3c2)nc(O)c1C#N,> 100 µM (inactive),> 100 µM (inactive),> 100 µM (inactive),> 100 µM (inactive),> 100 µM (inactive),> 100 µM (inactive),> 100 µM (inactive),> 100 µM (inactive),> 100 µM (inactive),20.3 µM (inactive),> 100 µM (inactive),> 100 µM (inactive),> 100 µM (inactive),> 100 µM (inactive),71.4 µM (inactive),> 100 µM (inactive),> 100 µM (inactive),> 100 µM (inactive),> 100 µM (inactive),> 100 µM (inactive)
CC1=NN(C(=O)CC(=O)Nc2cccc(Cl)c2)C(=O)C1/N=N\c1ccc(S(=O)(=O)c2ccc(/N=N/C3C(=O)N(C(=O)CC(=O)Nc4cccc(Cl)c4)N=C3C)cc2)cc1 (stereo not given),29.4 µM (inactive),> 100 µM (inactive),> 100 µM (inactive),> 100 µM (inactive),> 100 µM (inactive),> 100 µM (inactive),> 100 µM (inactive),> 100 µM (inactive),> 100 µM (inactive),> 100 µM (inactive),> 100 µM (inactive),> 100 µM (inactive),> 100 µM (inactive),> 100 µM (inactive),> 100 µM (inactive),> 100 µM (inactive),> 100 µM (inactive),> 100 µM (inactive),> 100 µM (inactive),> 100 µM (inactive)
COc1ccc(-c2c(C#N)c(N)n(C3OCC(OC(C)=O)C(OC(C)=O)C3OC(C)=O)c(=S)c2C#N)cc1 (stereo not given),32.9 µM (inactive) and 54.5 µM (inactive),42.4 µM (inactive) and 36.8 µM (inactive),> 100 µM (inactive) and 93.5 µM (inactive),99.5 µM (inactive) and 65.3 µM (inactive),53 µM (inactive) and 49.3 µM (inactive),36.1 µM (inactive) and 50.1 µM (inactive),25.3 µM (inactive) and 35.7 µM (inactive),> 100 µM (inactive),22.3 µM (inactive) and 40.7 µM (inactive),17.4 µM (inactive) and 15.2 µM (inactive),40.9 µM (inactive) and 23.6 µM (inactive),82.8 µM (inactive) and 77.8 µM (inactive),20.7 µM (inactive) and 16.4 µM (inactive),77.1 µM (inactive) and 63.4 µM (inactive),34.7 µM (inactive) and 22.6 µM (inactive),43 µM (inactive) and 51.2 µM (inactive),14.3 µM (inactive) and 14 µM (inactive),> 100 µM (inactive),23.1 µM (inactive) and 22 µM (inactive),> 100 µM (inactive)
COc1ccc(Cn2c3ccc([N+](=O)[O-])cc3c(=O)n2Cc2ccccn2)cc1,> 100 µM (inactive),> 100 µM (inactive),> 100 µM (inactive),> 100 µM (inactive),46 µM (inactive),> 100 µM (inactive),76.4 µM (inactive),66.2 µM (inactive),> 100 µM (inactive),28.9 µM (inactive),> 100 µM (inactive),> 100 µM (inactive),> 100 µM (inactive),> 100 µM (inactive),66.5 µM (inactive),40.6 µM (inactive),63 µM (inactive),39.7 µM (inactive),> 100 µM (inactive),> 100 µM (inactive)
CN(/N=C/c1ccccc1O)c1ccc2ccccc2n1,16.3 µM (inactive),17.7 µM (inactive),42.3 µM (inactive),16.3 µM (inactive),27.1 µM (inactive),56.1 µM (inactive),44.4 µM (inactive),17.1 µM (inactive),35.6 µM (inactive),81.7 µM (inactive),16.4 µM (inactive),78 µM (inactive),23.6 µM (inactive),11.3 µM (inactive),19.8 µM (inactive),52.2 µM (inactive),19.7 µM (inactive),22.4 µM (inactive),20.8 µM (inactive),16.7 µM (inactive)
CC#CC(O)(C(=O)OCCCN(C)C)C1CCCCC1 (stereo not given),> 100 µM (inactive),> 100 µM (inactive),> 100 µM (inactive),> 100 µM (inactive),> 100 µM (inactive),> 100 µM (inactive),> 100 µM (inactive),> 100 µM (inactive),> 100 µM (inactive),> 100 µM (inactive),> 100 µM (inactive),> 100 µM (inactive),> 100 µM (inactive),> 100 µM (inactive),> 100 µM (inactive),> 100 µM (inactive),> 100 µM (inactive),> 100 µM (inactive),> 100 µM (inactive),> 100 µM (inactive)
CC(CCC=O)CCOCc1ccccc1 (stereo not given),> 100 µM (inactive),> 100 µM (inactive),> 80.7 µM (inactive),> 87.5 µM (inactive),> 100 µM (inactive),> 100 µM (inactive),> 100 µM (inactive),67.3 µM (inactive),> 100 µM (inactive),18.9 µM (inactive),> 100 µM (inactive),> 100 µM (inactive),> 100 µM (inactive),> 100 µM (inactive),> 100 µM (inactive),> 100 µM (inactive),> 54.5 µM (inactive),> 100 µM (inactive),> 100 µM (inactive),> 100 µM (inactive)
Cc1ccc(S(=O)(=O)Oc2coc(CO)cc2=O)cc1,9.84 µM (inactive),6.38 µM (inactive),12.3 µM (inactive),14.8 µM (inactive),13.1 µM (inactive),14.3 µM (inactive),6.85 µM (inactive),16.8 µM (inactive),20.3 µM (inactive),3.14 µM (inactive),14.7 µM (inactive),33.1 µM (inactive),13.8 µM (inactive),9.29 µM (inactive),15.3 µM (inactive),8.02 µM (inactive),3.82 µM (inactive),22.8 µM (inactive),14.1 µM (inactive),14.6 µM (inactive)
